The results in this text go back to EPA's ToxRefDB 2.

Data set [1] has as its system primate. As to conditions: Sub-acute repeat dose toxicity; Oral; Gavage/Intubation; dose end: 19 day; group: systemic; systemic / clinical chemistry / creatinine / creatinine + systemic / clinical chemistry / urea nitrogen / urea nitrogen + systemic / ….
The test system of data set [2] is primate. As to conditions: Sub-acute repeat dose toxicity; Oral; Gavage/Intubation; dose end: 21 day; group: systemic; systemic / in life observation / clinical signs / inappetence + systemic / in life observation / clinical signs / abnormal feces + systemic….
In data set [3] the test system is rat. As to conditions: Sub-acute repeat dose toxicity, sprague dawley, Oral, Gavage/Intubation, dose end: 14 day, group: systemic.
The test system of data set [4] is primate. As to conditions: Sub-acute repeat dose toxicity; Oral; Gavage/Intubation; dose end: 30 day; group: systemic; systemic / clinical chemistry / protein / protein + systemic / hematology / erythrocyte (rbc) count differential / erythrocyte (rbc) + ….
Data set [5] relates to rat. As to conditions: Sub-acute repeat dose toxicity, sprague dawley, Oral, Gavage/Intubation, dose end: 28 day, group: systemic.
Data set [6] deals with rat. As to conditions: Carcinogenicity; fischer; Oral; Feed; dose end: 2 year; group: systemic; systemic / in life observation / body weight / body weight.
Data set [7] concerns rat. As to conditions: Sub-acute repeat dose toxicity, sprague dawley, Oral, Gavage/Intubation, dose end: 28 day, group: systemic. The source holds these as a separate data set.
Data set [8] relates to rat. As to conditions: Prenatal developmental toxicity study; sprague dawley; Oral; Gavage/Intubation; dose end: 7 GD; group: maternal; reproductive / reproductive performance / estrous cycle / corpora lutea + reproductive / reproductive performance / postimplantation loss / ….
Data set [9] has as its system rat. As to conditions: Developmental neurotoxicity study; sprague dawley; Injection; Subcutaneous; dose end: 345 PND; group: cannot be grouped; systemic / in life observation / body weight / offspring (pup) weight + systemic / in life observation / clinical signs / abnormal movements….
[10] abbreviates: systemic / clinical chemistry / calcium / calcium + systemic / clinical chemistry / protein / protein + systemic / hematology / erythrocyte….
Setting [11] is: systemic / hematology / erythrocyte (rbc) count differential / erythrocyte (rbc) + systemic / hematology / hematocrit (hct) / hematocrit (….
The mark [12] stands for this setting: systemic / pathology gross / full gross necropsy / ulcer.
Setting [13] is: systemic / pathology gross / full gross necropsy / ulcer + systemic / clinical chemistry / protein / protein + systemic / hematology / ….
Setting [14] is: systemic / organ weight / heart / nos + systemic / organ weight / thymus / nos + systemic / pathology microscopic / ovary / follicle count.

`NC(=O)n1c(O)c(C(=O)c2cc(Cl)cs2)c2cc(Cl)ccc21`: the LEL with primate [1] worked out at 8 mg/kg/day; with primate [2] it was 3 mg/kg/day; in the data set with rat [3] (setting [11]), 3 mg/kg/day; with primate [4], 2 mg/kg/day; in the data set on rat [5] (setting [12]) it was 2 mg/kg/day. Also, the LOAEL in the data set with primate [1] was > 8 mg/kg/day; in the data set on primate [2], > 3 mg/kg/day; with rat [3] (setting [10]) it was > 100 mg/kg/day; in the data set with primate [4] it was > 6 mg/kg/day; in the data set with rat [5] (setting [13]), > 8 mg/kg/day. Further, the NEL was < 8 mg/kg/day in the data set with primate [1]; < 3 mg/kg/day in the data set with primate [2]; < 3 mg/kg/day with rat [3] (setting [11]); < 2 mg/kg/day with primate [4]; < 2 mg/kg/day in the data set with rat [5] (setting [12]). In addition, the NOAEL in the data set on primate [1] was ≥ 8 mg/kg/day; with primate [2], ≥ 3 mg/kg/day; with rat [3] (setting [10]), ≥ 100 mg/kg/day; in the data set with primate [4], ≥ 6 mg/kg/day; with rat [5] (setting [13]), ≥ 8 mg/kg/day.
As to `Cc1ccc2ncccc2c1` [6-Methylquinoline], in the data set with rat [6], the LEL came to 25 mg/kg/day, the LOAEL was > 25 mg/kg/day, the NEL is < 25 mg/kg/day and the NOAEL was ≥ 25 mg/kg/day.
Take `CS(=O)(=O)OCCCCOS(C)(=O)=O` [Busulfan]: in the data set with rat [7] (setting [14]), the LOAEL was > 1.5 mg/kg/day, the NEL is 0.1 mg/kg/day and the no-observed-adverse-effect level (NOAEL) is ≥ 1.5 mg/kg/day. In addition, the LEL with rat [7] (systemic / pathology microscopic / ovary / follicle count) turned out to be 0.5 mg/kg/day. In the data set with rat [8], the LEL worked out at 1.5 mg/kg/day, the lowest observed adverse effect level (LOAEL) is > 1.5 mg/kg/day, the NEL amounted to 0.5 mg/kg/day and the no observed adverse effect level (NOAEL) was ≥ 1.5 mg/kg/day.
For `C[C@@H]1C[C@H]2[C@@H]3CCC4=CC(=O)C=C[C@]4(C)[C@@]3(F)[C@@H](O)C[C@]2(C)[C@@]1(O)C(=O)CO` [Dexamethasone], in the data set on rat [9], the LEL worked out at 3 mg/kg/day, the LOAEL is > 3 mg/kg/day, the NEL is < 3 mg/kg/day and the NOAEL is ≥ 3 mg/kg/day.
